{
  "source": "paper PMC7835349",
  "about": "(Communications Biology, 2021)",
  "key": {"[1]": {"test": "Plasma pharmacokinetics after IV bolus in C.B-17 SCID mouse", "assay_type": "in vivo", "conditions": "for concentration at 0.05 h / concentration at 0.5 h / concentration at 1 h / concentration at 2 h / concentration at 4 h / concentration at 6 h / concentration at 8 h / Concentration AZD4320 in Plasma, individual animals: 5 mg/kg, mouse IV", "description": "Pharmacokinetic studies were carried out in the female C.B-17 SCID mouse. Either freshly prepared solutions of AZD4320 in 30% hydroxypropyl-β-cyclodextrin or drug-dendrimer conjugates in phosphate buffered saline were injected as a bolus into the tail vein at dosing volume of 5 ml/kg. Blood samples were collected at different time points post dose and analysed as below.\nBlood samples were collected from the jugular vein by venepuncture into K2EDTA (as anticoagulant) tubes. Immediately following collection into the K2EDTA tube the samples were mixed gently and kept on crushed ice until centrifugation. Within 30 mins of blood collection, each sample was centrifuged (1500 g for 10 min at 4 °C) to generate plasma which was kept on wet ice at all times in polypropylene tubes. Duplicate 50 μL aliquots were transferred immediately after centrifugation into uniquely labelled polypropylene tubes (‘released’ AZD4320) containing equivalent amount (50 μL) of 0.2 M citric acid solution, inverted 10 times and then stored in a freezer set to maintain a temperature of −80 °C, until analysis.\nThe concentrations of ‘total’ AZD4320 were determined in plasma by overnight incubation with hydrazine followed by protein precipitation with acetonitrile and subsequent liquid/liquid extraction. Liquid chromatography with mass spectrometric detection (LC-MS/MS, details in Supplementary Table 5) was used to quantitate both ‘released’ and ‘total’ AZD4320.\n(§1) Sample analyses were performed in batches containing study samples, calibration standards at 10 concentration levels, QC samples at three concentration levels in duplicate and blank samples. The analytical run acceptance criteria for calibration standards and QC samples was that at least 75% of back-calculated concentrations for calibration standards and at least 2/3 of the QC samples (at least 50% at each concentration level) should be within ±20% (±25% at LLOQ) from nominal value."}, "[2]": {"test": "Tumour pharmacokinetics (released and total AZD4320) in RS4;11 tumours", "assay_type": "in vivo, C.B-17 SCID mouse", "from_the_text": "For tumour measurements, tumours were harvested, split into smaller pieces and snap frozen in liquid nitrogen. Frozen tumour samples were subsequently weighed and then homogenised for both ‘released’ and ‘total’ AZD4320. For ‘released’ AZD4320, samples were homogenised on ice with an equal volume (w/v) of blank plasma containing 0.2 M citric acid. The samples were then processed according to the aforementioned plasma approach. For ‘total’ AZD4320, samples were homogenised with an equal volume of plasma (w/v) and then processed according to the aforementioned ‘total’ approach.\nas §1\nFemale C.B.−17 SCID mice were purchased from Charles River Laboratories. Mice were 5–8 weeks old at the time of tumour implantation. All xenograft studies were conducted at our Association for the Assessment and Accreditation of Laboratory Animal Care accredited facility in Waltham, MA in accordance with ethical regulations described in the guidelines established by the internal Institutional Animal Care and Use Committee. The dendrimer conjugates were formulated in citrate/phosphate buffer pH 5.0, diluted 1:10 with 5% glucose containing 1% w/v Kolliphor HS15, and AZD4320 was formulated in 30% HP-β-CD and dosed as a weekly intravenous (IV) administration at a volume of 5 ml/kg at the indicated doses. Five million RS4;11, five million SUDHL-4 or five million OCI-LY-10 cells were injected subcutaneously in the right flank of mice in a volume of 0.1 ml. Tumour volumes (measured by caliper), animal body weight, and tumor condition were recorded twice weekly for the duration of the study. The tumour volume was calculated (taking length to be the longest diameter across the tumour and width to be the corresponding perpendicular diameter) using the formula: length (mm) x width (mm)^2/0.52. For efficacy studies, mice were randomized based on tumour volumes using stratified sampling and enrolled into control and treatment groups. Tumour growth inhibition from the start of treatment was quantified by measuring the difference in tumour volume between control and treated groups. Survival analysis was evaluated using Mantel-Cox test. Tumours were also taken for bioanalysis."}},
  "note": "Values joined by “and” are separate entries in the source; they are usually repeats but may differ in a detail not shown here. Equal values may be shown once. Read-outs that look alike come from different tables or passages of the source.",
  "data": [
    {"smiles": "CN(CCO)CCC(CSc1ccccc1)Nc1ccc(S(=O)(=O)NC(=O)c2ccc(N3CCC(C(O)c4ccccc4-c4ccc(Cl)cc4)CC3)cc2)cc1S(=O)(=O)C(F)(F)F", "note": "(stereo not shown) [AZD4320]", "values": [
      {"measurement": "plasma concentration relative to initial concentration", "setting": "[1]; bolus IV, C.B-17 SCID mice, within 10 min", "result": "less than 20%"},
      {"measurement": "concentration at 0.05 h", "setting": "[1]; female, C.B-17 SCID, mouse, plasma, intravenous, dosed at 5 mg/kg, 0.05 hr, read-out: Concentration AZD4320 in Plasma, Dose Adjusted to 10 mg/kg", "result": 30600, "unit": "ng/mL"},
      {"measurement": "concentration at 0.5 h", "setting": "[1]; female, C.B-17 SCID, mouse, plasma, intravenous, dosed at 5 mg/kg, 0.5 hr, read-out: Concentration AZD4320 in Plasma, Dose Adjusted to 10 mg/kg", "result": 1950, "unit": "ng/mL"},
      {"measurement": "concentration at 1 h", "setting": "[1]; female, C.B-17 SCID, mouse, plasma, intravenous, dosed at 5 mg/kg, 1 hr, read-out: Concentration AZD4320 in Plasma, Dose Adjusted to 10 mg/kg", "result": 870, "unit": "ng/mL"},
      {"measurement": "concentration at 2 h", "setting": "[1]; female, C.B-17 SCID, mouse, plasma, intravenous, dosed at 5 mg/kg, 2 hr, read-out: Concentration AZD4320 in Plasma, Dose Adjusted to 10 mg/kg", "result": 150, "unit": "ng/mL"},
      {"measurement": "concentration at 4 h", "setting": "[1]; female, C.B-17 SCID, mouse, plasma, intravenous, dosed at 5 mg/kg, 4 hr, read-out: Concentration AZD4320 in Plasma, Dose Adjusted to 10 mg/kg", "result": 170, "unit": "ng/mL"},
      {"measurement": "concentration at 6 h", "setting": "[1]; female, C.B-17 SCID, mouse, plasma, intravenous, dosed at 5 mg/kg, 6 hr, read-out: Concentration AZD4320 in Plasma, Dose Adjusted to 10 mg/kg", "result": 120, "unit": "ng/mL"},
      {"measurement": "concentration at 8 h", "setting": "[1]; female, C.B-17 SCID, mouse, plasma, intravenous, dosed at 5 mg/kg, 8 hr, read-out: Concentration AZD4320 in Plasma, Dose Adjusted to 10 mg/kg", "result": 80, "unit": "ng/mL"},
      {"measurement": "concentration at 0.05 h", "setting": "[1]; female, C.B-17 SCID, mouse, plasma, iv, AZD4320 dosed at 5 mg/kg, 0.05 hr, read-out: Concentration AZD4320 in Plasma, Mean", "result": 15300, "unit": "ng/mL"},
      {"measurement": "concentration at 0.05 h", "setting": "[1]; female, C.B-17 SCID, mouse, plasma, iv, AZD4320 dosed at 5 mg/kg, 0.05 hr, read-out: Concentration AZD4320 in Plasma, individual animals", "result": 13900, "unit": "ng/mL"},
      {"measurement": "concentration at 0.5 h", "setting": "[1]; female, C.B-17 SCID, mouse, plasma, iv, AZD4320 dosed at 5 mg/kg, 0.5 hr, read-out: Concentration AZD4320 in Plasma, Mean", "result": 977, "unit": "ng/mL"},
      {"measurement": "concentration at 0.5 h", "setting": "[1]; female, C.B-17 SCID, mouse, plasma, iv, AZD4320 dosed at 5 mg/kg, 0.5 hr, read-out: Concentration AZD4320 in Plasma, individual animals", "result": 1080, "unit": "ng/mL"},
      {"measurement": "concentration at 1 h", "setting": "[1]; female, C.B-17 SCID, mouse, plasma, iv, AZD4320 dosed at 5 mg/kg, 1 hr, read-out: Concentration AZD4320 in Plasma, Mean", "result": 436, "unit": "ng/mL"},
      {"measurement": "concentration at 1 h", "setting": "[1]; female, C.B-17 SCID, mouse, plasma, iv, AZD4320 dosed at 5 mg/kg, 1 hr, read-out: Concentration AZD4320 in Plasma, individual animals", "result": 579, "unit": "ng/mL"},
      {"measurement": "concentration at 2 h", "setting": "[1]; female, C.B-17 SCID, mouse, plasma, iv, AZD4320 dosed at 5 mg/kg, 2 hr, read-out: Concentration AZD4320 in Plasma, Mean", "result": 75.3, "unit": "ng/mL"},
      {"measurement": "concentration at 2 h", "setting": "[1]; female, C.B-17 SCID, mouse, plasma, iv, AZD4320 dosed at 5 mg/kg, 2 hr, read-out: Concentration AZD4320 in Plasma, individual animals", "result": 79.7, "unit": "ng/mL"},
      {"measurement": "concentration at 4 h", "setting": "[1]; female, C.B-17 SCID, mouse, plasma, iv, AZD4320 dosed at 5 mg/kg, 4 hr, read-out: Concentration AZD4320 in Plasma, Mean", "result": 86.3, "unit": "ng/mL"},
      {"measurement": "concentration at 6 h", "setting": "[1]; female, C.B-17 SCID, mouse, plasma, iv, AZD4320 dosed at 5 mg/kg, 6 hr, read-out: Concentration AZD4320 in Plasma, Mean", "result": 60.1, "unit": "ng/mL"},
      {"measurement": "concentration at 8 h", "setting": "[1]; female, C.B-17 SCID, mouse, plasma, iv, AZD4320 dosed at 5 mg/kg, 8 hr, read-out: Concentration AZD4320 in Plasma, Mean", "result": 41.3, "unit": "ng/mL"},
      {"measurement": "clearance", "setting": "[1]; female, C.B-17 SCID, plasma, mouse, 3-compartment model, conventional IV dose, read-out: Total Plasma Clearance CL (converted)", "result": 0.493, "unit": "mL/min"},
      {"measurement": "Concentration AZD4320 in Plasma, individual animals", "setting": "[1]; AZD4320 dosed at 5 mg/kg, 0.05 hr", "result": 16000, "unit": "ng/mL"},
      {"measurement": "Concentration AZD4320 in Plasma, individual animals", "setting": "[1]; AZD4320 dosed at 5 mg/kg, 0.5 hr", "result": "1030 ng/mL and 822 ng/mL"},
      {"measurement": "Concentration AZD4320 in Plasma, individual animals", "setting": "[1]; AZD4320 dosed at 5 mg/kg, 1 hr", "result": "402 ng/mL and 328 ng/mL"},
      {"measurement": "Concentration AZD4320 in Plasma, individual animals", "setting": "[1]; AZD4320 dosed at 5 mg/kg, 2 hr", "result": "67.8 ng/mL and 78.4 ng/mL"},
      {"measurement": "Concentration AZD4320 in Plasma, individual animals", "setting": "[1]; AZD4320 dosed at 5 mg/kg, 4 hr", "result": "131 ng/mL and 54.4 ng/mL and 73.6 ng/mL"},
      {"measurement": "Concentration AZD4320 in Plasma, individual animals", "setting": "[1]; AZD4320 dosed at 5 mg/kg, 6 hr", "result": "92.1 ng/mL and 39.5 ng/mL and 48.8 ng/mL"},
      {"measurement": "Concentration AZD4320 in Plasma, individual animals", "setting": "[1]; AZD4320 dosed at 5 mg/kg, 8 hr", "result": "52.9 ng/mL and 53.4 ng/mL and 17.6 ng/mL"},
      {"measurement": "Compartmental Micro Constant k12", "setting": "[1]; mouse, 3-compartment model", "result": 2.31, "unit": "h⁻¹"},
      {"measurement": "Compartmental Micro Constant k13", "setting": "[1]; mouse, 3-compartment model", "result": 3.92, "unit": "h⁻¹"},
      {"measurement": "Compartmental Micro Constant k21", "setting": "[1]; mouse, 3-compartment model", "result": 0.108, "unit": "h⁻¹"},
      {"measurement": "Compartmental Micro Constant k31", "setting": "[1]; mouse, 3-compartment model", "result": 4.36, "unit": "h⁻¹"},
      {"measurement": "Central Compartment Volume Vc", "setting": "[1]; mouse, 3-compartment model, conventional IV dose", "result": 0.0042, "unit": "L"},
      {"measurement": "Tumor PK Released AZD4320, individual tumours", "setting": "[2]; RS4;11, single dose 10 mg/kg or equivalent, 0.5 h, 10 mg/kg", "result": 910, "unit": "ng/g"},
      {"measurement": "Tumor PK Released AZD4320, individual tumours", "setting": "[2]; RS4;11, single dose 10 mg/kg or equivalent, 1 h, 10 mg/kg", "result": 813, "unit": "ng/g"},
      {"measurement": "Tumor PK Released AZD4320, individual tumours", "setting": "[2]; RS4;11, single dose 10 mg/kg or equivalent, 5 h, 10 mg/kg", "result": "1290 ng/g and 307 ng/g"},
      {"measurement": "Tumor PK Released AZD4320, individual tumours", "setting": "[2]; RS4;11, single dose 10 mg/kg or equivalent, 24 h, 10 mg/kg", "result": 232, "unit": "ng/g"},
      {"measurement": "time of maximum (released) AZD4320 concentration in tumour", "setting": "[2]; RS4;11 tumours, 10 mg/kg or equivalent", "result": "≤ 0.5", "unit": "h"},
      {"measurement": "concentration at 0.5 h", "setting": "[2]; female, C.B-17 SCID, mouse, tumour (RS4;11 xenograft), intravenous, 10 mg/kg, RS4;11, single dose 10 mg/kg or equivalent, 0.5 h, read-out: Tumor PK released AZD4320, individual tumours", "result": 1360, "unit": "ng/g"},
      {"measurement": "concentration at 1 h", "setting": "[2]; female, C.B-17 SCID, mouse, tumour (RS4;11 xenograft), intravenous, 10 mg/kg, RS4;11, single dose 10 mg/kg or equivalent, 1 h, read-out: Tumor PK released AZD4320, individual tumours", "result": 1220, "unit": "ng/g"},
      {"measurement": "concentration at 24 h", "setting": "[2]; female, C.B-17 SCID, mouse, tumour (RS4;11 xenograft), intravenous, 10 mg/kg, RS4;11, single dose 10 mg/kg or equivalent, 24 h, read-out: Tumor PK released AZD4320, individual tumours", "result": 359, "unit": "ng/g"}
    ]}
  ]
}
